Usually IC50 stands for the concentration that gives 50% inhibition. Usually Ki stands for a measure of affinity in units of concentration, obtained from inhibition or displacement.

The values below come from article PMC6471705, “Evaluation of the Enzyme Inhibitory and Antioxidant Activities of Entada spiralis Stem Bark and Isolation of the Active Constituents” (Molecules, 2019).

Converted amounts (≈) assume the structure as drawn. “And” between values parts separate entries of the source, which are not always exact repeats. Equal values may be shown once. Read-outs that look alike come from different tables or passages of the source.

A short description of test [1]: DPPH radical scavenging assay. The note with it: for IC50: Table 3, molar units; for IC50 DPPH Assay: mean ± SEM of triplicate. As to the method: Modified methods from Sulaiman et al. and Ahmed et al. were used. Briefly, 150 µL of freshly prepared DPPH^• solution (0.4 M concentration) was carefully introduced into 96 round microplate wells each. 100 µL of sample/ standard (7.81–500 µg/mL) were added. Blanks contained only methanol and DPPH^•. Ascorbic acid (dissolved in distilled water) and quercetin (dissolved in MeOH) were used as standard. The plate was left in the dark for 25 min to activate. […] Tests were conducted in triplicate and the percentage inhibition of each sample/standard was calculated using the following equation:(1) (% DPPH inhibition)= [Ac−As/Ac] ×100 where, Ac = absorbance of DPPH radical in MeOH, As = absorbance of DPPH radical in sample or standard. IC50 values obtained from graphical plot from percentage inhibition against concentration were used to define the radial scavenging activity of each sample.

The nature of test [2]: ABTS radical scavenging assay. The note with it: for IC50: Table 3, molar units; for IC50 ABTS Assay: mean ± SEM of triplicate. As to the method:
A method reported by Zheleva-Dimitrova et al. was adopted with slight modifications. Stock solutions of ABTS (7 mM) and potassium persulphate (2.45 mM) were prepared using distilled water. The working solution was prepared by adding 1 mL of ABTS solution to same amount of potassium persulphate solution. The reaction mixture was left overnight for 16 h to generate the intensely blue coloured ABTS^•+. 1 mL of ABTS^•+ was then added to 50 mL of MeOH and distributed (100 µL each) into a 96 microplate well containing 100 µL of serially diluted sample/ standard (7.81–125 µg/mL). Absorbance was measured at 734 nm against blank (containing sample and MeOH only). Test was conducted in triplicate. Samples were compared with trolox and ascorbic acid and percentage inhibition was calculated as follows:(2) (% ABTS inhibition)= [Ac−As/Ac] ×100 where, Ac = absorbance of ABTS^• in MeOH, As = absorbance ABTS^•+ in sample/standard.
The radical scavenging activity was determined from the IC50 values obtained from the percentage inhibition curve against different concentrations of the sample/standard.

The nature of test [3]: Dot-blot staining assay, DPPH reagent. As to conditions: 1 mg/mL, compared to ascorbic acid positive control. As to the method: (§1) Rapid detection of the free radical scavenging activity of isolated compounds from active fractions of E. spiralis methanol extract was carried out using a method adapted from Sarian et al.. Three detection agents viz., DPPH^•, ABTS^•+ and β-carotene were used. Briefly, few drops of each compound were spotted on a TLC plate (1.5 × 8 cm) using capillary tube and dried for few minutes at room temperature. The plate was then carefully dipped in 0.5% DPPH^• in methanol for few seconds. The plate was allowed to dry and the colour change was observed. Yellow spots on a purple background indicate radical scavenging activity and intensity of the yellow colour is proportional to the antioxidant activity. A TLC-β-carotene assay was also conducted using 0.05% of β-carotene in chloroform. A few drops of each sample (1 mg/mL) was spotted on TLC plate an allowed to dry after which it was dipped into β-carotene solution for 20 s. The plate was dried completely under direct sunlight for 3 h. Yellow or orange spot on a white background indicates activity. The intensity of the colour is dependent on the extent of antioxidant activity of the compound. TLC ABTS^•+ test was performed by mixing 2.45 mM of potassium persulphate with 7 mM of ABTS and kept in the dark for 16 hours to generate ABTS^•+. Already spotted TLC plates were then dipped into it for 10 s and allowed to dry at room temperature. White or orange spots on a bluish green background indicates activity.

A short description of test [4]: Dot-blot staining assay, ABTS reagent. As to conditions: 1 mg/mL, compared to ascorbic acid positive control. The protocol: as §1
Test [5] in a line: Dot-blot staining assay, β-carotene. As to conditions: 1 mg/mL, compared to ascorbic acid positive control. As to the method:
as §1

A further test has as its target T1, α-amylase (Sus scrofa, UniProt P00690).
T1 sequence (P00690 16-511): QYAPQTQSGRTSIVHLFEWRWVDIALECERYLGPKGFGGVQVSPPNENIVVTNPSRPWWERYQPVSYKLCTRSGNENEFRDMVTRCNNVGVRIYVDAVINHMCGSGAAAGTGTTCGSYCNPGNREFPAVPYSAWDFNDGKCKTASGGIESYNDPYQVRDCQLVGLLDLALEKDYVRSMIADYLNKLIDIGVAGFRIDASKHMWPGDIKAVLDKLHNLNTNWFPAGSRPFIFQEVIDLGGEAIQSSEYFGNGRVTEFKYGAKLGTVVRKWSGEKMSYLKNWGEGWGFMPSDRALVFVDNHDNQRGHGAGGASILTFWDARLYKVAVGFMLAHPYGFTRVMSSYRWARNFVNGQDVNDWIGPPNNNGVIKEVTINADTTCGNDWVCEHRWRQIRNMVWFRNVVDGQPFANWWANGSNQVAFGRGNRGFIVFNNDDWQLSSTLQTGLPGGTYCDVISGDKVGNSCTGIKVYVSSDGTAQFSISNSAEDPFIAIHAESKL
The experiment in a line: In vitro α-amylase inhibitory assay (starch-iodine method). The class given is biochemical. The note with it: mean ± SEM of triplicate. As to the method:
The procedure proposed by Johnson et al. was adopted and modified for a microplate-based method carried out by Xiao et al.. Briefly, 25 µL of α-amylase solution (1 U/mL in 0.2 M phosphate buffer at pH 7) was introduced into 96 well flat bottom microplates followed by addition of 25 µL of serially diluted sample/standard (7.8–1000 µg/mL) and incubated for 5 min at 37 °C followed by 25 µL of 1% starch in buffer (boiled for 15 min) and re-incubated for 45 min at 50 °C. Next was the addition of 100 µL of 1% iodine solution and 50 µL of distilled water. The microplate was tightly covered during incubation to prevent evaporative loss. […] All determinations including sample, control, and blank were conducted in triplicate under the same reaction conditions. […] Inhibitory activity was determined using the following equation:(3) (% enzyme inhibition)= 1−[Abs/Contr] ×100 where, Abs is the absorbance of the sample or standard. Contr is the absorbance of the control without enzyme.

Test [6] concerns the target α-glucosidase (Saccharomyces cerevisiae, UniProt P53341). Description: In vitro α-glucosidase inhibitory assay (pNPG substrate). Format: biochemical. The protocol:
This assay used a method adapted from Johnson et al. with slight modifications employing α-glucosidase (enzyme) obtained from Saccharomyces cerevisiae (1 U/mL) dissolved in 50 mM phosphate buffer (pH 6.9). 100 µL of enzyme (in 0.1M phosphate buffer) was added into 96 microplate well containing 50 µL of sample/ standard 7.8–1000 µg/mL and incubated at 37 °C for 10 min. Next was the addition of 50 µL of the substrate, p-nitrophenyl glucopyranoside (5 mM in 0.1 phosphate buffer at pH 6.9) and re-incubated for 5 min at 37 °C. The reaction was terminated by the addition of 100 µL of 0.1 M Na2CO3 and absorbance was measured at 405 nm.
Experiments were conducted in triplicate.

Test [7] addresses α-glucosidase. Set-up: method as in doi:10.1016/j.foodres.2014.01.029. As to conditions: isolated from Rhodiola crenulata root; cited from earlier work.
Another test has as its target human pancreatic amylase. The note with it: cited from earlier work.
[8] abbreviates: Table 3, molar units, read-out: IC50 α-Glucosidase (converted).
The mark [9] stands for this setting: mean ± SEM of triplicate, read-out: IC50 α-Glucosidase (converted).

Chain of α-glucosidase (Saccharomyces cerevisiae, UniProt P53341) (P53341 whole entry): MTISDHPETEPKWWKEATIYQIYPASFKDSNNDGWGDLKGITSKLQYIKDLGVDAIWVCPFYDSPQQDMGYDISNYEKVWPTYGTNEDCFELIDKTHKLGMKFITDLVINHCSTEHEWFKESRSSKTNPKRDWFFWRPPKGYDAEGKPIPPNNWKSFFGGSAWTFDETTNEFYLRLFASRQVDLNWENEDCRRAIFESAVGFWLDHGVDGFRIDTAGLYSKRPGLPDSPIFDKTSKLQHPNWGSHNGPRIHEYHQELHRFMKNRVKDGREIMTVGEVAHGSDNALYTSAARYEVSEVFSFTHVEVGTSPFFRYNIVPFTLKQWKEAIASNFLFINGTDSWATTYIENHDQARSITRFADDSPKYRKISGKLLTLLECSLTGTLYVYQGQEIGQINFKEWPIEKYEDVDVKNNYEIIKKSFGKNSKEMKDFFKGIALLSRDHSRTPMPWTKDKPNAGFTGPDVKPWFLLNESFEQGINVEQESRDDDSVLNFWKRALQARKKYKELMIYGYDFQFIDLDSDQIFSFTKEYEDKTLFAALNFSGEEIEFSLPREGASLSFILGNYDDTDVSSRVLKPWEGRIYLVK

Consider `O=C1O[C@H]([C@@H](O)CO)C(O)=C1O` [Ac, ascorbic acid, reference compound], for which, in test [1], inhibition was half-maximal at 140 µM (IC50) and the “IC50 DPPH Assay” value is 24.67 ± 0.45 ^A µg/mL. Besides, the “IC50 DPPH Assay” value in test [1] (listed as ascorbic acid) turned out to be 5.38 ± 1.26 µg/mL (≈ 30.5 µM). Moreover, in [2], inhibition was half-maximal at 95 µM (IC50) and the “IC50 ABTS Assay” value is 16.74± 1.76 ^A µg/mL.
In the case of `Oc1cc(O)c2c(c1)O[C@H](c1ccc(O)c(O)c1)[C@H](O)C2` [FEQ-8, (−)-epicatechin], in test [3], the “Dot-blot spot intensity, DPPH” value is “strong intensity”. Also, the “Dot-blot spot intensity, ABTS” value in test [4] was “strong intensity”. Moreover, the “Dot-blot spot intensity, β-carotene” value in [5] is “strong intensity”. In addition, the concentration for half-maximal inhibition (IC50) in test [1] was 40 µM; in test [2] it was 3.9 µM; on α-glucosidase [6] (setting [8]), 340 µM; on α-glucosidase [6] (setting [9]), 341 µM; at α-glucosidase [7] it was 29.9 ± 2.2 µM. For the same compound, the “IC50 ABTS Assay” value in test [2] is recorded as 1.12 ± 0.09 µg/mL (≈ 3.86 µM). Besides, the “IC50 α-Amylase” value on α-amylase is “did not show any observable α-amylase inhibition”.
On to `O=c1c(O)c(-c2ccc(O)cc2)oc2cc(O)cc(O)c12` [FEQ-3, kaempferol], for which, in test [3], the “Dot-blot spot intensity, DPPH” value is reported as “strong intensity”. Moreover, in test [4], the “Dot-blot spot intensity, ABTS” value was “strong intensity”. Also, in test [5], the “Dot-blot spot intensity, β-carotene” value is on record as “strong intensity”. For the same compound, in test [1], the midpoint of inhibition, the IC50, lay at 39 µM and the “IC50 DPPH Assay” value is 11.29 ± 0.26 µg/mL (≈ 39.4 µM). For the same compound, in test [2], it took 7 µM to reach half-maximal inhibition (IC50) and the “IC50 ABTS Assay” value stood at 2.10 ± 0.51 µg/mL (≈ 7.34 µM).
With `O=c1c(O)c(-c2ccc(O)c(O)c2)oc2cc(O)cc(O)c12` [Qc, quercetin, reference compound], in [1], half-maximal inhibition (IC50) required 99 µM and the “IC50 DPPH Assay” value is listed as 29.82 ± 3.73 ^A µg/mL.
`O=C(O)c1cc(O)c(O)c(O)c1` [FEQ-5, gallic acid]: the “Dot-blot spot intensity, DPPH” value in test [3] was “strong intensity”. Further, the “Dot-blot spot intensity, ABTS” value in test [4] is “strong intensity”. In [5], the “Dot-blot spot intensity, β-carotene” value is recorded as “strong intensity”. Besides, the concentration for half-maximal inhibition (IC50) in test [1] is 36 µM; in test [2], 7.5 µM; at α-glucosidase [6] (IC50 α-Glucosidase, Table 3, molar units) it was 38 µM; at α-glucosidase [6] (IC50 α-Glucosidase, mean ± SEM of triplicate), 38.1 µM. The “IC50 DPPH Assay” value in [1] is given as 6.15 ± 0.38 µg/mL (≈ 36.2 µM). For the same compound, in test [2], the “IC50 ABTS Assay” value turned out to be 1.28 ± 0.89 µg/mL (≈ 7.52 µM).
Take montbretin A: the Ki on human pancreatic amylase was 0.008 µM.
Turning to `COc1cc(O)c2c(=O)c(OC)c(-c3ccc(O)c(OC)c3)oc2c1` [FEQ-4, pachypodol], the “Dot-blot spot intensity, DPPH” value in test [3] was “low intensity”. Further, the “Dot-blot spot intensity, ABTS” value in test [4] was “strong intensity”. Moreover, the “Dot-blot spot intensity, β-carotene” value in [5] is “low intensity”. In addition, the half-maximal inhibitory concentration (IC50) in test [1] was 190 µM; in test [2], 100 µM; on α-glucosidase [6] (setting [8]), 220 µM; on α-glucosidase [6] (setting [9]), 219 µM. In [1], the “IC50 DPPH Assay” value was found to be 66.17 ± 8.03 µg/mL (≈ 192 µM).
On to `CCCCCCOC(=O)/C=C/c1ccc(O)c(OC)c1` [FEQ-2, (E)-hexyl 3-(4-hydroxy-3-methoxyphenyl) acrylate], for which, in test [3], the “Dot-blot spot intensity, DPPH” value is given as “strong intensity”. For the same compound, the “Dot-blot spot intensity, ABTS” value in test [4] is “strong intensity”. Besides, in test [5], the “Dot-blot spot intensity, β-carotene” value was “strong intensity”. In addition, the 50% inhibitory concentration (IC50) is 50 µM in test [1], 10 µM in test [2], 530 µM on α-glucosidase [6] (setting [8]) and 535 µM on α-glucosidase [6] (setting [9]). In test [1], the “IC50 DPPH Assay” value was 13.79 ± 2.13 µg/mL (≈ 49.5 µM). Besides, the “IC50 ABTS Assay” value in [2] came to 4.69 ± 1.25 µg/mL (≈ 16.8 µM). For the same compound, the “IC50 α-Amylase” value on α-amylase is “did not show any observable α-amylase inhibition”.
Take `Oc1cc(O)c2c(c1)O[C@H](c1ccc(O)c(O)c1)[C@@H](O)C2` [FEQ-7, (+)-catechin]: the “Dot-blot spot intensity, DPPH” value in test [3] is recorded as “strong intensity”. In addition, the “Dot-blot spot intensity, ABTS” value in test [4] is reported as “strong intensity”. Moreover, the “Dot-blot spot intensity, β-carotene” value in test [5] is “strong intensity”. Further, in test [1], the IC50 is 43 µM and the “IC50 DPPH Assay” value amounted to 12.48 ± 1.55 µg/mL (≈ 43 µM). For the same compound, in test [2], 6.4 µM corresponded to half-maximal inhibition (IC50) and the “IC50 ABTS Assay” value is listed as 1.86 ± 0.15 µg/mL (≈ 6.41 µM). Besides, the “IC50 α-Amylase” value against α-amylase is on record as “did not show any observable α-amylase inhibition”. Besides, on α-glucosidase [6] (read-out: IC50 α-Glucosidase (converted)), the 50% inhibitory concentration (IC50) was 351 µM and 350 µM.
Take `Cc1c(C)c2c(c(C)c1O)CCC(C)(C(=O)O)O2` (stereo not drawn) [Tx, 6-hydroxy-2,5,7,8-tetramethylchroman-2-carboxylic acid, reference compound]: in test [2], the IC50 was determined as 61 µM and the “IC50 ABTS Assay” value is 15.23 ± 2.15 ^A µg/mL.
